We go through 21 compounds from PMC10979501, “Protein Structure-Based Organic Chemistry-Driven Ligand Design from Ultralarge Chemical Spaces” (ACS Central Science, 2024).

Each structure is given as a SMILES string. Where two headings read alike, the source gives them in different places.

One test deals with T1, human recombinant DRD3 (Homo sapiens, UniProt P35462).
T1 construct: host or cells: CHO cells
The test is described as follows: [3H]-methylspiperone binding inhibition, human recombinant DRD3 in CHO cells (Eurofins Discovery assay #48). The settings on record: for inhibition at 10 µM: 10 μM competitor, single concentration, mean of two independent experiments, CHO cells, read-out: percentage of inhibition of [3H]-methylspiperone binding; for ligand efficiency (LE): SpaceDock hits, LE as in ref 53; for Ki: from six concentrations dose-response curves, read-out: inhibition constant (Ki). The procedure:
Fig. S8. Binding of six SpaceDock hits to the human dopamine D3 receptor, expressed by the
percentage of inhibition of [3H]‐methylspiperone binding to human recombinant DRD3 in CHO cells
(Eurofins‐Discovery assay #48). Inhibition constants (Ki) were determined from six concentrations

The target of the next test is human DRD3. The settings on record: cited from earlier work.

T1 sequence (P35462 whole entry): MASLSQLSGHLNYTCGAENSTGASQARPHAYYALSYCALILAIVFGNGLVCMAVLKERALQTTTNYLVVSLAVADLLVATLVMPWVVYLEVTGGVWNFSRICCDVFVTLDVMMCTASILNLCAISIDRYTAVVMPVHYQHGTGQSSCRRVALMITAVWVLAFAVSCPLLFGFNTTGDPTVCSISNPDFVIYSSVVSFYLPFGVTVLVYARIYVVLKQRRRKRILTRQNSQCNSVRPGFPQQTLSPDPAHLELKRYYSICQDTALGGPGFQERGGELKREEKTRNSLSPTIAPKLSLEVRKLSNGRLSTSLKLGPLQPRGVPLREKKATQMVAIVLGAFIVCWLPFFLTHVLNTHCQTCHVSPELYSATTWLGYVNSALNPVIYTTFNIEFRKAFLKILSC

Turning to `CCc1cc2c(c(C(=O)NCCN(C(C)C)C3CC3)c1)OCC2` [#1], at human recombinant DRD3, the inhibition at 10 µM is 95.1 ± 1.1%, the “ligand efficiency (LE)” value is reported as 0.40 and the Ki was 360 nM.

As for `CCCN(CCC)CCNC(=O)c1cccc2c(C)c(C)[nH]c12` [#25], on human recombinant DRD3, the inhibition at 10 µM turned out to be 90.7 ± 1.6%, the “ligand efficiency (LE)” value amounted to 0.36 and the Ki was 1400 nM.

For `CCc1ccc2occ(C(=O)NCC3CCCN(CC)C3)c2c1` (stereo not drawn) [#33], at human recombinant DRD3, the inhibition at 10 µM is 34.3 ± 1.3%.

`CCCN(CCC)CCNC(=O)C1CCc2cnn(C)c2C1` (stereo not drawn) [#35]: the inhibition at 10 µM at human recombinant DRD3 came to 13.7 ± 1.2%.

Take `CC(C)N(CCNC(=O)c1cn(C)nc1C1CCOC1)C1CC1` (stereo not drawn) [#36]: the inhibition at 10 µM on human recombinant DRD3 amounted to 21.3 ± 0.4%.

`CCCN1CCCC1CNC(=O)c1c[nH]cc1-c1ccccc1` (stereo not drawn) [#66]: on human recombinant DRD3, the inhibition at 10 µM is 88.2 ± 0.8%, the “ligand efficiency (LE)” value was 0.40 and the inhibition constant (Ki) came out at 320 nM.

Take `CCc1oc(C)cc1C(=O)NCC1CCN(CC)CC1` [#97]: the inhibition at 10 µM on human recombinant DRD3 stood at 13.6 ± 0.2%.

For `CCCN(CCNC(=O)c1cccc2sccc12)C(C)C` [#107], at human recombinant DRD3, the inhibition at 10 µM is 80.2 ± 0.5%, the “ligand efficiency (LE)” value was determined as 0.39 and the Ki came to 1570 nM.

Take `CCN(CC)CC(CC)(CC)NC(=O)c1cccc2nc(C)sc12` [#110]: at human recombinant DRD3, the inhibition at 10 µM was -5.1 ± 4.5%.

Take `CCCN(CC)CCNC(=O)c1cc(Br)cc2[nH]cnc12` [#142]: on human recombinant DRD3, the inhibition at 10 µM turned out to be 88.7 ± 0.1%, the “ligand efficiency (LE)” value stood at 0.43 and the Ki amounted to 401 nM.

Regarding `CCCN(CC)CCNC(=O)c1nn(C)c2c1CSCC2` [#161], at human recombinant DRD3, the inhibition at 10 µM came out at 72.6 ± 0.9%, the “ligand efficiency (LE)” value was 0.39 and the inhibition constant Ki was 1650 nM.

Turning to `Cc1nc2sccn2c1C(=O)NCC1CCCCC1N1CCCC1` (stereo not drawn) [#215], on human recombinant DRD3, the inhibition at 10 µM was found to be 4.7 ± 1.8%.

Turning to `CCN1CCC[C@H]1CNC(=O)c1c(-c2ccccc2)noc1C` [#239], the inhibition at 10 µM on human recombinant DRD3 turned out to be 3.5 ± 3.1%.

Take `Cc1ccc(C(CNC(=O)c2cc(C)nc3c2cnn3C)N2CCCC2)cc1` (stereo not drawn) [#252]: the inhibition at 10 µM on human recombinant DRD3 was determined as 26.2 ± 0.8%.

As to `CCCN(CCC)CCNC(=O)c1cccc2oc(C)nc12` [#256], the inhibition at 10 µM at human recombinant DRD3 stood at 44.4 ± 0.8%.

Consider `CCN(CC)CCNC(=O)c1cc(Cl)c(N)cc1OC` [CHEMBL86], for which, at human DRD3 (closest ChEMBL ligand), the Ki was 23 nM.

`COc1cc2c(c(C(=O)NC[C@H]3CCCN3Cc3ccccc3)c1)OCC2` [CHEMBL148352]: at human DRD3 (closest ChEMBL ligand), the Ki was 120 nM.

Consider `Cc1ccc(C)c(C(=O)NCCCCN2CCN(c3cc(C)ccc3C)CC2)c1` [CHEMBL1258495], for which the Ki at human DRD3 (closest ChEMBL ligand) is 28 nM.

Regarding `C#CC1CCC(N(CCC)CCCCNC(=O)c2ccc(OCCCc3cnn(CCCC)n3)c(OC)c2)CC1` (stereo not drawn) [CHEMBL2397478], the Ki on human DRD3 (closest ChEMBL ligand) was 1 nM.

`CCCN(CCCCNC(=O)c1cccc2cc[nH]c12)CC1CC1c1cccc(F)c1` (stereo not drawn) [CHEMBL4590839]: at human DRD3 (closest ChEMBL ligand), the Ki was 18.8 nM.

In the case of `CCc1cc(Cl)c(OC)c(C(=O)NC[C@@H]2CCCN2CC)c1O` [Eticlopride, eticlopride], the inhibitory constant (Ki) at human DRD3 (eticlopride, in Figure 4A) was 0.12 nM.

What is called inhibition is the relative decrease from the control value, in per cent. The term Ki denotes a measure of affinity in units of concentration, obtained from inhibition or displacement.
